Measured values: ChEMBL document CHEMBL5316312, “Novel Diarylthioether Compounds as Agents for the Treatment of Chagas Disease” (J Med Chem, 2023)
Converted amounts (≈) assume the structure as drawn. The source made the active and inactive calls. No cut-off for these calls is given here.

Columns and labels:
[1] = tested on: Trypanosoma cruzi; experiment: Antitrypanosomal activity against Trypanosoma cruzi Tulahuen trypomastigotes assessed as reduction in parasite growth incubated for 4 hrs by cell counter analysis; format: functional, organism-based
[2] = Cytotoxicity against rat H9c2 cells assessed as reduction in cell viability measured for 72 hrs; format: toxicity, cell-based
[3] = target: Voltage-gated inwardly rectifying potassium channel KCNH2 (Homo sapiens, UniProt Q12809); experiment: Inhibition of hERG cardiac ion channel; format: toxicity
[4] = Cytotoxicity against monkey LLC-MK2 cells assessed as reduction in cell viability; format: toxicity, cell-based; details: rhesus monkey (Macaca mulatta)
[5] = tested on: HepG2; experiment: Cytotoxicity against human HepG2 cells assessed as reduction in cell viability; format: functional, cell-based
[6] = tested on: Trypanosoma cruzi; experiment: Antitrypanosomal activity against Trypanosoma cruzi Tulahuen amastigotes infected in monkey LLC-MK2 cells assessed reduction in amastigotes per 100 cells by measuring rate of kill time by counting analysis; format: functional
[7] = Microsomal stability in CD-1 mouse liver microsome measured assessed as intrinsic clearance upto 30 mins by HPLC-MS/MS analysis; format: ADME; details: microsomes, 0.5 h
[8] = Microsomal stability in human liver microsome measured assessed as half life upto 30 mins by HPLC-MS/MS analysis; format: ADME; details: liver microsomes
[9] = target: Sterol 14-alpha demethylase (Trypanosoma cruzi (strain CL Brener), UniProt Q7Z1V1); experiment: Inhibition of Trypanosoma cruzi CYP51
[10] = Microsomal stability in human liver microsome measured assessed as intrinsic clearance upto 30 mins by HPLC-MS/MS analysis; format: ADME; details: microsomes, 0.5 h
[11] = Equilibrium solubility of the compound in FaSSIF at pH 6.5; format: physicochemical
[12] = tested on: Trypanosoma cruzi; experiment: Antitrypanosomal activity against Trypanosoma cruzi Tulahuen amastigotes infected in monkey LLC-MK2 cells assessed as reduction in amastigotes per 100 cells by cell counting analysis; format: functional, organism-based
[13] = Cytotoxicity against mouse NIH3T3 cells assessed as reduction in cell viability; format: toxicity, cell-based
[14] = tested on: Trypanosoma cruzi; experiment: Antitrypanosomal activity against Trypanosoma cruzi Tulahuen strain trypomastigotes infected in rat H9c2 cells; format: functional, organism-based
[15] = Microsomal stability in CD-1 mouse liver microsome measured assessed as half life upto 30 mins by HPLC-MS/MS analysis; format: ADME; details: liver microsomes
[16] = Cmax in BALB/c mouse at 50 mg/kg, po measured at 15 to 1440 mins by LC-MS/MS analysis; format: ADME, organism-based; design: time lower 15 min, dose 50 mg/kg, time upper 1440 min, route po; details: in vivo
[17] = Tmax in BALB/c mouse at 50 mg/kg, po measured at 15 to 1440 mins by LC-MS/MS analysis; format: ADME, organism-based; details: in vivo, time 15-1440 min
[18] = AUC (0 to t) in BALB/c mouse at 50 mg/kg, po measured at 15 to 1440 mins by LC-MS/MS analysis; format: ADME, organism-based; design: dose 50 mg/kg, time upper 1440 min, time lower 15 min, route po; details: in vivo
[19] = Toxicity in BALB/c mouse assessed as reduction in body weight loss at 50 mg/kg, po bid; format: organism-based; design: scale not given: the % may be the effect or the level left; details: in vivo
[20] = AUC in BALB/c mouse at 50 mg/kg, po measured at 15 to 1440 mins by LC-MS/MS analysis; format: ADME, organism-based; design: time upper 1440 min, dose 50 mg/kg, time lower 15 min, route po; details: in vivo
[21] = tested on: Trypanosoma cruzi; experiment: In vivo antitrypanosomal activity against Trypanosoma cruzi infected in BALB/c mouse model assessed as reduction in parasitemia at 30 mg/kg, po preincubated for 4 days post infection followed by compound treatment and measured after 5 to 10 days; format: functional; design: scale not given: the % may be the effect or the level left; details: time 5-10 day

Sterol 14-alpha demethylase, sequence (Q7Z1V1 whole entry): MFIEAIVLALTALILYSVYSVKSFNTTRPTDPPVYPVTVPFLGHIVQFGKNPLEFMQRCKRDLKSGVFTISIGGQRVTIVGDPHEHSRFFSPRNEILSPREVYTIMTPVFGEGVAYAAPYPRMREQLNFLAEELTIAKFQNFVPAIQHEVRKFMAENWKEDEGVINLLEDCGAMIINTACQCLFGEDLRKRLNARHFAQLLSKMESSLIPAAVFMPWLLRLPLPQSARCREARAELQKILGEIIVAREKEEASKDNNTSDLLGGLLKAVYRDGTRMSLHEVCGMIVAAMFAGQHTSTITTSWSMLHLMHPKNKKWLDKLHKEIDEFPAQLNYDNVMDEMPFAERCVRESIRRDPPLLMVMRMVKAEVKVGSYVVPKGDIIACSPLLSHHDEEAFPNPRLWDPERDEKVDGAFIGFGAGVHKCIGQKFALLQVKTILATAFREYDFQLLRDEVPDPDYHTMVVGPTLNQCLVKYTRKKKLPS
Voltage-gated inwardly rectifying potassium channel KCNH2, sequence (Q12809 whole entry): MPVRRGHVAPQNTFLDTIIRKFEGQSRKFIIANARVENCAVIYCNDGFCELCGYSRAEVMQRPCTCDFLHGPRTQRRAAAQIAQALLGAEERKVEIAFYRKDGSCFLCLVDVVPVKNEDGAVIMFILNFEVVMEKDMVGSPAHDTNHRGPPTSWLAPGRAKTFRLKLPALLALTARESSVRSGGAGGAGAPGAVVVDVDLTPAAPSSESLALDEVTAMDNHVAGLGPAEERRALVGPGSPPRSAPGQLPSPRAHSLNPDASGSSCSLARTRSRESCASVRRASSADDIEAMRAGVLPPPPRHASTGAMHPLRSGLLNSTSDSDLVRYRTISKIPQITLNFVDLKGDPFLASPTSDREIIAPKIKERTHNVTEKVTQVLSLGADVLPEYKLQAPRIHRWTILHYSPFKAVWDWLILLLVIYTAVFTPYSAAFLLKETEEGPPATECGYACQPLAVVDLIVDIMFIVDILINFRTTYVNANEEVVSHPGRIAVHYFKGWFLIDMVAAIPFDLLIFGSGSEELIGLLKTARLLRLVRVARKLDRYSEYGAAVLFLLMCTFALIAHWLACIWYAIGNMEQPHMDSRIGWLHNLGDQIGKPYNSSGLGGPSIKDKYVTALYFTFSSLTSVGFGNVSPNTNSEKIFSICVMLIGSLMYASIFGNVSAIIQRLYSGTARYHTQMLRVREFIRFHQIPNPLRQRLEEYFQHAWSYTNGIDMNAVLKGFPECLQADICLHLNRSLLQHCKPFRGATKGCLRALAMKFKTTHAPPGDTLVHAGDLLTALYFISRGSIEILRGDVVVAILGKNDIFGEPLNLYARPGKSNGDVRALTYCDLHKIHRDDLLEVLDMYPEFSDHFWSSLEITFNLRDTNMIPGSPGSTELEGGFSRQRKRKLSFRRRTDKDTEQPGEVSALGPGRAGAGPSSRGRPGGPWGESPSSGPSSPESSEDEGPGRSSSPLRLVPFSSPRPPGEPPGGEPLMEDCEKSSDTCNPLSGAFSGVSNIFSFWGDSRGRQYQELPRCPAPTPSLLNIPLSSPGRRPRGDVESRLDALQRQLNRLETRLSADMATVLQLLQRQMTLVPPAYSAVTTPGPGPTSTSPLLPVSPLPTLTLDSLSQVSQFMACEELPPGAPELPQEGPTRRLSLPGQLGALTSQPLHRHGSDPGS

SMILES | IC50 [1] [µM] | IC50 at 72 h [2] [µM] | also measured
COc1ccc(CO)c(Sc2ccc(N3CCCC3=O)cc2C(F)(F)F)c1 | 15.8 | > 50.1 | 
O=C1CCCN1c1ccc(Sc2cc(F)ccc2CO)c(C(F)(F)F)c1 | 0.126 | > 50.1 | 
O=C1CCCN1c1ccc(Sc2ccccc2CO)nc1 | 12.6 | > 50.1 | 
O=C1CCCN1c1ccc(Sc2cccc(Cl)c2CO)c(C(F)(F)F)c1 | 0.316 | > 50.1 | 
N#Cc1cc(N2CCCC2=O)ccc1Sc1ccccc1CO |  | 0.447 | IC50 [3]: > 50.1 µM; IC50 [4]: 0.447 µM; IC50 [5]: > 100 µM; Time [6]: >24 h; CLH [7]: 1.36 mL/min/g; half-life [8]: 15 min; IC50 [9]: > 10 µM; Activity [1]: inactive; CLH [10]: 4.62 mL/min/g; solubility thermodynamic [11]: 56 µg/mL (≈ 173 µM); IC50 [12]: 0.251 µM; IC50 [13]: > 50.1 µM; IC50 [14]: 0.24 µM; half-life [15]: 54 min
COCc1ccccc1Sc1ccc(N2CCCC2=O)cc1C#N | 6.31 | 31.6 | 
O=C1CCCN1c1ccc(Sc2ccccc2CO)cc1C(F)(F)F | 7.94 | > 50.1 | 
N#Cc1cc(N2CCCC2=O)ccc1Sc1ccccc1C(=O)O | 0.794 | > 50.1 | 
Cc1cccc(CO)c1Sc1ccc(N2CCCC2=O)cc1C(F)(F)F | 0.794 | > 50.1 | 
O=C1CCCN1c1ccc(Sc2ccccc2CO)c(Cl)c1 | 0.2 | > 50.1 | 
COc1cccc(Sc2ccc(N3CCCC3=O)cc2C(F)(F)F)c1CO | 25.1 | > 50.1 | 
COC(=O)c1cc(N2CCCC2=O)ccc1Sc1ccccc1CO | 31.6 | > 50.1 | 
O=C1CCCN1c1ccc(S(=O)(=O)c2ccccc2CO)c(C(F)(F)F)c1 | 0.251 | > 50.1 | Cmax [16]: 175 ng/mL; Tmax [17]: 30 min; CLH [7]: 20 mL/min/g; half-life [8]: 3.32 min; CLH [10]: 12.5 mL/min/g; AUC(0-t) [18]: 208 ng·h/mL; half-life [15]: 4.39 min
O=C1CCCN1c1ccc(Sc2cccc(F)c2CO)c(C(F)(F)F)c1 | 0.02 | > 50.1 | 
O=C1CCCN1c1ccc(Sc2c(Cl)cccc2CO)c(C(F)(F)F)c1 | 1.26 | > 50.1 | 
O=C1CCCN1c1ccc(Sc2cc(Cl)ccc2CO)c(C(F)(F)F)c1 | 6.31 | 39.8 | 
COc1cccc(CO)c1Sc1ccc(N2CCCC2=O)cc1C(F)(F)F | 20 | > 50.1 | 
O=C(O)c1cc(N2CCCC2=O)ccc1Sc1ccccc1CO | > 50.1 | > 50.1 | 

SMILES | IC50 [1] [µM] | IC50 at 72 h [2] [µM] | also measured
O=C1CCCN1c1ccc(Sc2ccc(Cl)cc2CO)c(C(F)(F)F)c1 | 0.158 | 31.6 | 
O=C1CCCN1c1ccc(Sc2ccccc2CO)c(F)c1 | 5.01 | > 50.1 | 
O=C1CCCN1c1ccc(Sc2ncccc2CO)c(C(F)(F)F)c1 | 20 | > 50.1 | 
N#Cc1cc(N2CCCC2=O)ccc1Oc1ccccc1CO | 2.51 | > 50.1 | 
O=C1CCCN1c1ccc(Sc2ccc(F)cc2CO)c(C(F)(F)F)c1 |  | > 50.1 | 
O=C(Cn1ccnc1[N+](=O)[O-])NCc1ccccc1 [BENZNIDAZOLE] | 1.26 | 31.6 | 
O=C1CCCN1c1ccc(Sc2ccccc2CO)cc1 | > 50.1 | > 50.1 | 
CCc1ccccc1Sc1ccc(N2CCCC2=O)cc1C(F)(F)F | 20 | 15.8 | 
Cc1ccc(CO)c(Sc2ccc(N3CCCC3=O)cc2C(F)(F)F)c1 | 15.8 | > 50.1 | 
COc1ccc(Sc2ccc(N3CCCC3=O)cc2C(F)(F)F)c(CO)c1 | 1 | > 50.1 | 
Cc1ccc(Sc2ccc(N3CCCC3=O)cc2C(F)(F)F)c(CO)c1 | 6.31 | > 50.1 | 
Cc1cccc(Sc2ccc(N3CCCC3=O)cc2C(F)(F)F)c1CO | 0.316 | > 50.1 | 
O=C1CCCN1c1ccc(Sc2ccccc2CO)c(C(F)(F)F)c1 | 0.0316 | > 50.1 | Cmax [16]: 301 ng/mL; Activity [19]: 16%; Tmax [17]: 30 min; CLH [7]: 31.49 mL/min/g; half-life [8]: 2.11 min; AUC [20]: 530 ng·h/mL; CLH [10]: 11.51 mL/min/g; Activity [21]: 70%; AUC(0-t) [18]: 485 ng·h/mL; half-life [15]: 4.78 min
O=C1CCCN1c1ccc(Sc2ccccc2CO)c(OC(F)(F)F)c1 | 2.51 | > 50.1 | 
CN(C)C(=O)c1cc(N2CCCC2=O)ccc1Sc1ccccc1CO | 50.1 | > 50.1 | 
O=C1CCCN1c1ccc(Sc2ccccc2O)c(C(F)(F)F)c1 | 2 | 15.8 | 
Cc1cc(N2CCCC2=O)ccc1Sc1ccccc1CO | 6.31 | > 50.1 | 
N#Cc1cc(N2CCCC2=O)ccc1Sc1cccc(CO)c1 | 31.6 | > 50.1 | 
